Measurements reported in PubChem BioAssay (NCI).
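GI50 is the concentration that inhibits growth by half. TGI marks complete inhibition of growth.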

Key:
Assay in all cases: DTP human tumour cell line panel, 384-well format
A549 NSCLC = tested on: A549 NSCLC
ACHN renal = tested on: ACHN renal
HCT-15 colon = tested on: HCT-15 colon
HL-60(TB) leukemia = tested on: HL-60(TB) leukemia
HOP-62 NSCLC = tested on: HOP-62 NSCLC
IGROV1 ovarian = tested on: IGROV1 ovarian
K-562 leukemia = tested on: K-562 leukemia
KM12 colon = tested on: KM12 colon
NCI-H322M lung = tested on: NCI-H322M lung
OVCAR-8 ovarian = tested on: OVCAR-8 ovarian
SK-OV-3 ovarian = tested on: SK-OV-3 ovarian
U251 glioblastoma = tested on: U251 glioblastoma
UACC-62 melanoma = tested on: UACC-62 melanoma

Compound: c1cn2cc(-c3ccc4cn[nH]c4c3)nc(Nc3ccc(N4CCOCC4)cc3)c2n1
- GI50 (A549 NSCLC): 17.1 µM
- TGI (A549 NSCLC): > 53.8 µM
- GI50 (ACHN renal): 10.7 µM
- TGI (ACHN renal): 25.1 µM
- GI50 (HCT-15 colon): 19.4 µM
- TGI (HCT-15 colon): > 100 µM
- GI50 (HL-60(TB) leukemia): > 100 µM
- TGI (HL-60(TB) leukemia): > 100 µM
- GI50 (HOP-62 NSCLC): 9.54 µM
- TGI (HOP-62 NSCLC): 22.2 µM
- GI50 (IGROV1 ovarian): 14.1 µM
- TGI (IGROV1 ovarian): 37.9 µM
- GI50 (K-562 leukemia): > 100 µM
- TGI (K-562 leukemia): > 100 µM
- GI50 (KM12 colon): 0.527 µM
- TGI (KM12 colon): 25 µM
- GI50 (NCI-H322M lung): 12.3 µM
- TGI (NCI-H322M lung): 37.5 µM
- GI50 (OVCAR-8 ovarian): 4.82 µM
- TGI (OVCAR-8 ovarian): 17.1 µM
- GI50 (SK-OV-3 ovarian): 5.35 µM
- TGI (SK-OV-3 ovarian): 19.3 µM
- GI50 (U251 glioblastoma): 9.72 µM
- TGI (U251 glioblastoma): 25.4 µM
- GI50 (UACC-62 melanoma): 7.97 µM
- TGI (UACC-62 melanoma): 20.9 µM

Compound: C=CC(=O)N[C@H]1CCOC[C@H]1Nc1ncc2cc(-c3c(Cl)c(OC)cc(OC)c3Cl)ccc2n1
- GI50 (A549 NSCLC): 17.3 µM
- TGI (A549 NSCLC): 74.2 µM
- GI50 (ACHN renal): 30.6 µM
- TGI (ACHN renal): > 100 µM
- GI50 (HCT-15 colon): 11.4 µM
- TGI (HCT-15 colon): 35.5 µM
- GI50 (HL-60(TB) leukemia): 9.62 µM
- TGI (HL-60(TB) leukemia): 22.7 µM
- GI50 (HOP-62 NSCLC): 20.4 µM
- TGI (HOP-62 NSCLC): 57.2 µM
- GI50 (IGROV1 ovarian): 17.9 µM
- TGI (IGROV1 ovarian): 63.5 µM
- GI50 (K-562 leukemia): 7.1 µM
- TGI (K-562 leukemia): 26.9 µM
- GI50 (KM12 colon): 19.2 µM
- TGI (KM12 colon): 47.7 µM
- GI50 (NCI-H322M lung): 27.7 µM
- TGI (NCI-H322M lung): > 100 µM
- GI50 (OVCAR-8 ovarian): 16 µM
- TGI (OVCAR-8 ovarian): 35.1 µM
- GI50 (SK-OV-3 ovarian): 19.4 µM
- TGI (SK-OV-3 ovarian): 63.4 µM
- GI50 (U251 glioblastoma): 15 µM
- TGI (U251 glioblastoma): 36.1 µM
- GI50 (UACC-62 melanoma): 10.7 µM
- TGI (UACC-62 melanoma): 25.1 µM
